What was measured:
[1] = system: MDA-MB-231 HA-TrkA tumours; assay: Xenograft of MDA-MB-231 HA-TrkA in SCID mice, tumour volume (Experiment 1); type: in vivo; details: 3 injections every 3 days from day 14; CEP-701 10 mg/kg intraperitoneal, siEphA2 7.5 microg/mouse close to the tumour
Protocol: FIG. 9: A study of the inhibition of TrkA and EphA2 on tumour development in vivo. The tumours were developed without any intervention for 14 days and then subjected to 3 injections (every 3 days, black arrows) of solvent (control), CEP-701 (10 mg/kg), siEphA2 (7.5 microg/mouse) or CEP-701 (10 mg/kg) and siEphA2 (7.5 microg/mouse). The experiments were stopped 31 days after the first injection of the treatment for ethical considerations after the death of the control mice. A) The tumour volumes were evaluated by measuring the length (;) and the width (w) and then calculating the volume using the formula π/6×l×W×(l+w)/2; the Mann and Whitney test was carried out between the control group and CEP-701 (a), between the control groups and siEphA2 (b), between the control groups and CEP-701+siEphA2 (c), and between the groups siEphA2 and CEP-701+siEphA2 (d)*, P<0.05; **, P<0.01; ns: not significant. B) Study of the inhibition of the expression of receptors by siRNA on the overall survival of SCID mice. […] The tumour volumes were evaluated by measuring the length (l) and width (w) and then calculating the volume using the formula π/6×l×W×(l+w)/2. […] Significance was measured using the log-rank test (P=0.0022). […]
Experiment 1: the mice used were six-week old SCID females. […] The tumour volume was measured according to the following formula: π/6×length×width×(width+length)/2. […]

Src = assay: Western blot of Src phosphorylation in MDA-MB-231 cells; type: cell-based
Protocol: (§1) FIG. 8: A study of the role of TrkA and EphA2 in the activation of proteins Akt and Src. Cells MDA-MB-231 were respectively treated with a TrkA inhibitor (K252a), an anti-EphA2 siRNA (siEphA2), an inhibitor of PI3-K (LY294002) and an inhibitor of Src (SKI-1).
(§2) A and D. Cells MDA-MB-231 HA-TrkA were treated with proNGF N.C. […] The phosphorylation of Akt and Src was determined by using phospho-specific antibodies. The equal charge was verified using Akt and Src antibodies.
(§3) C and F. The phosphorylation of Akt and Src was determined in the total lysates coming from cells MDA-MB-231 transfected with siEphA2 and treated for 30 minutes with proNGF N.C. (C) or NGF (F).
(§4) After treatment, the cells were lysed (lysis buffer: 40 mM HEPES pH 7.5; 1 mM EDTA pH 8.0; 120 mM NaCl; 10 mM NaPPi; 50 mM NaF; 1.5 mM Na3VO4; 1% Triton X 100; 0.1% SDS; 1 mM PMSF; 10% glycerol and 1/100 th of protease inhibitor cocktail (Sigma) (20 min; 4° C.)). The lysates were recovered and clarified by centrifugation (12,000 g; 10 min; 4° C.). The supernatant was then stored at −80° C. until use. The protein extracts were diluted to 2 μg·μL−1 in a Laemmli 1× buffer (7 min; 100° C.) then deposited and separated on SDS-PAGE (concentration gel 3.6% acrylamide and separation gel 7.5% to 10% acrylamide (thickness 1 mm); 180 V; 10 min then 200 V constant; until output of the migration front). The proteins separated by SDS-PAGE were transferred according to the semi-dry transfer method (buffer: 48 mM Tris base, 39 mM glycine, 1.64 mM SDS, 20% methanol (v/v); 14 V; 15 min per gel) or liquid (buffer: 25 mM Tris base and 192 mM glycine; 15% methanol (v/v); 100 V; 30 min) on nitrocellulose membranes (0.45 μm; Whatman; Germany) or PVDF (0.45 μm; Immobilon P; Millipore; France). The PVDF membrane was “activated” beforehand (methanol; 10 min; 20° C.). The membranes were then saturated (TBS-T; 5% BSA; 1 h; 20° C.) then incubated (16 h; 4° C.) with the chosen primary antibody. […] The membranes were placed in an image analyser (LAS 4000; Fuji) connected to a computer which allowed image generation (software Image Reader LAS 4000).
(§5) The antibody against EphA2 was sc-924 (Santa Cruz), the antibody against sortilin was BD Bioscience 612101, the antibody against TrkA was sc 14024 (Santa Cruz), the antibody against HA was MMS-101R (Covance), the antibody against Akt was Cell Signaling 4691, the antibody against phospho-Akt (Ser 473) was Cell Signaling 9271, the antibody against Src was Cell Signaling 2109 (WB), the antibody against PhosphoSrc (Tyr416) was Cell Signaling 2105 and the antibody against actin was Sigma A2066.
(§6) Proteins Akt and Src were both involved in the pro-invasive effect of proNGF. In order to identify the role of TrkA and EphA2 in the activation of proteins Akt and Src, cells MDA-MB-231 were treated respectively with a TrkA inhibitor (K252a), an anti-EphA2 siRNA (siEphA2) the sequence of which is presented in table 1, a PI3-K inhibitor (LY294002) (the activation of Akt in effect underlies that of PI3-K) and an inhibitor of Src (SKI-1).

[2] = system: tumours xenografted with cells MDA-MB-231 overexpressing TrkA; details: previously demonstrated, ref (34); cited from earlier work
Akt = assay: Western blot of Akt phosphorylation in MDA-MB-231 cells; type: cell-based; details: for effect on Akt activation induced by proNGF: proNGF N.C. 30 min, 10 nM K252a, 15 μM LY294002, 50 nM SKI-1 or siEphA2
Protocol: as §1, §2, §3, §4, §5, §6

[3] = NGF 30 min, 10 nM K252a or siEphA2

Row | SMILES | tumour volume / growth of xenografted tumours vs control [1] | effect on Src phosphorylation induced by NGF (Src; [3]) | growth of xenografted tumours [2] | effect on Akt phosphorylation induced by NGF (Akt; [3]) | effect on Akt activation induced by proNGF (Akt) | effect on Src activation induced by proNGF (Src; proNGF N.C. 30 min, 10 nM K252a, 15 μM LY294002, 50 nM SKI-1 or siEphA2)
1 | C[C@]12O[C@H](C[C@]1(O)CO)n1c3ccccc3c3c4c(c5c6ccccc6n2c5c31)CNC4=O [CEP-701, reference compound] | slightly, but not significantly, reduced | – | – | – | – | –
2 | COC(=O)[C@@]1(O)C[C@H]2O[C@]1(C)n1c3ccccc3c3c4c(c5c6ccccc6n2c5c31)C(=O)NC4 [K252a, reference compound] | – | inhibited this activation | reduces the growth of tumours | inhibited this activation | abolished the activation of Akt | –
3 | COc1cc2ncnc(Nc3ccc(Oc4ccccc4)cc3)c2cc1OC [SKI-1, reference compound] | – | – | – | – | does not affect the phosphorylation of Akt | inhibition of Src

— patent US20170258871A1, “COMBINED USE OF A TRKA INHIBITOR AND AN EPHA2 INHIBITOR FOR USING IN THE TREATMENT OF SOLID CANCERS, AND METHOD FOR THE PROGNOSIS OF SURVIVAL OF A PATIENT WHO HAS A SOLID CANCER” (UNIVERSITE DES SCIENCES ET TECHNOLOGIES DE LILLE, priority 2014, published 2017)
